From patent US11702428B2, “Chemical compounds as inhibitors of interleukin-1 activity” (Genentech, Inc., priority 2017, dated 2023)
Like-named read-outs stand apart in the source and are kept apart here.

How the values were obtained:
NLRP3 inflammasome = NLRP3 inflammasome (Homo sapiens, UniProt Q96P20); experiment: NLRP3 inflammasome activation assay in PBMCs (LPS priming, nigericin), IL-1β by ELISA; assay type: cell-based; set-up: Human peripheral blood mononuclear cells (PBMCs); host or cells: primary human PBMCs from healthy donors
Procedure: Some of the following assays were used to determine the inhibitory activity of the compounds on the NLRP3 inflammasome using a common inflammasome activation stimuli-nigericin.
Human peripheral blood mononuclear cells (PBMCs), consisting of lymphocytes (T, B and NK cells), monocytes and dendritic cells, were freshly isolated from human peripheral blood from healthy donors. Cells were obtained through an IRB approved donor program by iXCells Biotechnologies where all the donors were tested for bacterial and viral infections. Cells were purified from peripheral blood using ficoll gradient centrifugation.
Cells were then stimulated with 10 uM Nigericin (Sigma Aldrich; InvivoGen) for 1.5 h. Plates were centrifuged at 1,500 rpm for 3 minutes to pellet cells and supernatant was transferred into new plates for subsequent experiments.
For ELISA assays cells were seeded into 96-well plates. Post study, supernatants were removed and the levels of mature IL-1β, IL-18 and TNFα (Quantikine ELISA, R&D systems) were measured in cell conditioned media by ELISA according to manufacturer's instructions.

[1] = tested on: LPS and nigericin stimulated cells; experiment: cells; assay type: cell-based; settings: for IC50: Homo sapiens, read-out: CTG protective IC50
Procedure: Viability of compound treated cells is measured using CellTiter-Glo® assay (Promega, Madison, Wis.) that measures the ATP content of cells which is proportional to the number of live cells within a well. This is a counter-screen to establish that the reduction of IL-1β levels in LPS and nigericin stimulated and compound treated cells is not due to cytotoxicity, but rather through the inhibition of the inflammasome pathway. Compounds inhibiting NRLP3 inflammasome activation ultimately increase the viability of LPS and nigericin stimulated cells by blocking NLRP3 mediated pyroptosis that would otherwise lead to cell lysis.

[2] = LPS, nigericin, read-out: PBMC IL-1β IC50
[3] = LPS and nigericin stimulated cells, CellTiter-Glo
[4] = LPS 100 ng/mL 3 h, nigericin 10 uM 1.5 h, read-out: IC50 IL-1β

Sequence of NLRP3 inflammasome (Q96P20 whole entry): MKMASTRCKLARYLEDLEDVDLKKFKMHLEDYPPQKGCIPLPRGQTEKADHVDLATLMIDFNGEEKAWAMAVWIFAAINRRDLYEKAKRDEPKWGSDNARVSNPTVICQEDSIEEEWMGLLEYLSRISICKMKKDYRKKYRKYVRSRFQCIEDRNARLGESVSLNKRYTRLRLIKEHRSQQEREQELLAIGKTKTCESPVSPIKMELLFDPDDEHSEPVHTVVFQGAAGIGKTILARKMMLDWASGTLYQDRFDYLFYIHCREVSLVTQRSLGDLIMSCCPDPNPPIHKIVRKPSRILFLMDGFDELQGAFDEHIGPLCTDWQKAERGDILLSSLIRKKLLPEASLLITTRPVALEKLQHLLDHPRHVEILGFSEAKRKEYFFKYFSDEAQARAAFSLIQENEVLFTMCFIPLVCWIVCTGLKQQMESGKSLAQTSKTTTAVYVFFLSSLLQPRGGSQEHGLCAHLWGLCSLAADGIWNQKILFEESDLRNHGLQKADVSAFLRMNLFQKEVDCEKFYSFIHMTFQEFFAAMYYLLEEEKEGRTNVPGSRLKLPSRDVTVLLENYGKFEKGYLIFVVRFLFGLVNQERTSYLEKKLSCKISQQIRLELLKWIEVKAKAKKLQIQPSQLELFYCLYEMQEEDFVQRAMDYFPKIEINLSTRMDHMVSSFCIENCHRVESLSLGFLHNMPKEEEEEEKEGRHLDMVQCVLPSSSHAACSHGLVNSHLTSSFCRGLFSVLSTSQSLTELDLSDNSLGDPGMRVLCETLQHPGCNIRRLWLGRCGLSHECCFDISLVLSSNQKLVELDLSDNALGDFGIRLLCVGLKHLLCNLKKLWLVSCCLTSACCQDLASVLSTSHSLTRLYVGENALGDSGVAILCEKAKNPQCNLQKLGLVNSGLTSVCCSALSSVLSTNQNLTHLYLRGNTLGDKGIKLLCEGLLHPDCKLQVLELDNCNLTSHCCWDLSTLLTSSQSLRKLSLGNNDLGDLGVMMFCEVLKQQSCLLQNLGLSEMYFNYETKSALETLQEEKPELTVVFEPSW

Structure (SMILES) | IC50 (NLRP3 inflammasome; [2]) [nM] | IC50 [1, 3] [nM] | further results
O=C(Nc1c2c(cc3c1CCC3)CCC2)NS(=O)(=O)c1cnn2c1C(F)CCC2 (stereo not shown) | 100 to 1000 | < 100 | –
O=C(Nc1c2c(cc3c1CCC3)CCC2)NS(=O)(=O)c1cc2n(n1)CCNC2=O | 100 to 1000 | – | –
CN1CCn2nc(S(=O)(=O)NC(=O)Nc3c4c(cc5c3CCC5)CCC4)cc2C1=O | 1000 to 10000 | – | –
O=C(Nc1c2c(cc3c1CCC3)CCC2)NS(=O)(=O)c1cnn2c1OCC2 | 100 to 1000 | < 100 | –
NC1COc2c(S(=O)(=O)NC(=O)Nc3c4c(cc5c3CCC5)CCC4)cnn2C1 (stereo not shown) | 100 to 1000 | < 100 | –
O=C(Nc1c2c(cc3c1CCC3)CCC2)NS(=O)(=O)c1cnn2c1C(F)(F)CCC2 | 100 to 1000 | > 10000 | –
CC1(C)COc2c(S(=O)(=O)NC(=O)Nc3c4c(c(Cl)c5c3CCC5)CCC4)cnn2C1 | 100 to 1000 | – | –
Cc1ccc(S(=O)(=O)N2CC3(COc4c(S(=O)(=O)NC(=O)Nc5c6c(cc7c5CCC7)CCC6)cnn4C3)C2)cc1 | 1000 to 10000 | 100 to 1000 | –
O=C(Nc1c2c(cc3c1CCC3)CCC2)NS(=O)(=O)c1cnn2c1OC[C@@H](O)C2 | 100 to 1000 | < 100 | –
CCNC1COc2c(S(=O)(=O)NC(=O)Nc3c4c(cc5c3CCC5)CCC4)cnn2C1 (stereo not shown) | < 100 | < 100 | –
CN(C)[C@@H]1COc2c(S(=O)(=O)NC(=O)Nc3c4c(cc5c3CCC5)CCC4)cnn2C1 | – | – | IC50 [1]: > 10000 nM
CCOC1COc2c(S(=O)(=O)NC(=O)Nc3c4c(cc5c3CCC5)CCC4)cnn2C1 (stereo not shown) | < 100 | < 100 | –
CC(C)OC1COc2c(S(=O)(=O)NC(=O)Nc3c4c(cc5c3CCC5)CCC4)cnn2C1 (stereo not shown) | 100 to 1000 | < 100 | –
C[C@@H]1COc2c(S(=O)(=O)NC(=O)Nc3c4c(cc5c3CCC5)CCC4)cnn2C1 | < 100 | < 100 | –
O=C(Nc1c2c(cc3c1CCC3)CCC2)NS(=O)(=O)c1cc2n(n1)CCNC2 | 100 to 1000 | < 100 | –
COCC1COc2c(S(=O)(=O)NC(=O)Nc3c4c(cc5c3CCC5)CCC4)cnn2C1 (stereo not shown) | 100 to 1000 | < 100 | –
CN1CCn2nc(S(=O)(=O)NC(=O)Nc3c4c(cc5c3CCC5)CCC4)cc2C1 | 1000 to 10000 | 100 to 1000 | –
O=C(Nc1c2c(cc3c1CCC3)CCC2)NS(=O)(=O)c1ncn2c1OCCC2 | 100 to 1000 | 100 to 1000 | –
CCO[C@@H]1COc2c(S(=O)(=O)NC(=O)Nc3c4c(cc5c3CCC5)CCC4)cnn2C1 | 100 to 1000 | 100 to 1000 | –
CC(C)(C)OC(=O)NCC1COc2c(S(=O)(=O)NC(=O)Nc3c4c(cc5c3CCC5)CCC4)cnn2C1 (stereo not shown) | < 100 | < 100 | –
O=C(Nc1c2c(cc3c1CCC3)CCC2)NS(=O)(=O)c1cnn2c1OCC(N1CCC1)C2 (stereo not shown) | < 100 | < 100 | –
CCN[C@@H]1COc2c(S(=O)(=O)NC(=O)Nc3c4c(cc5c3CCC5)CCC4)cnn2C1 | 1000 to 10000 | 1000 to 10000 | –
CN(CC1COc2c(S(=O)(=O)NC(=O)Nc3c4c(cc5c3CCC5)CCC4)cnn2C1)C(=O)OC(C)(C)C (stereo not shown) | 100 to 1000 | 100 to 1000 | –

Structure (SMILES) | IC50 (NLRP3 inflammasome; [2]) [nM] | IC50 [1, 3] [nM] | further results
CNCC1COc2c(S(=O)(=O)NC(=O)Nc3c4c(cc5c3CCC5)CCC4)cnn2C1 (stereo not shown) | 1000 to 10000 | 1000 to 10000 | –
CN(C)CC1COc2c(S(=O)(=O)NC(=O)Nc3c4c(cc5c3CCC5)CCC4)cnn2C1 (stereo not shown) | – | – | IC50 [1]: 1000 to 10000 nM
COC1(C)COc2c(S(=O)(=O)NC(=O)Nc3c4c(cc5c3CCC5)CCC4)cnn2C1 (stereo not shown) | 100 to 1000 | 100 to 1000 | –
CC[C@@H]1COc2c(S(=O)(=O)NC(=O)Nc3c4c(cc5c3CCC5)CCC4)cnn2C1 | 100 to 1000 | 100 to 1000 | –
CC[C@H]1COc2c(S(=O)(=O)NC(=O)Nc3c4c(cc5c3CCC5)CCC4)cnn2C1 | < 100 | < 100 | –
CC(C)c1cc(C#N)cc(C(C)C)c1NC(=O)NS(=O)(=O)c1cnn2c1OCCC2 | 100 to 1000 | < 100 | –
O=C(Nc1c2c(cc3c1CCC3)CCC2)NS(=O)(=O)c1cnn2c1OCC(N1CC(F)C1)C2 (stereo not shown) | 100 to 1000 | < 100 | –
CN1CCn2ncc(S(=O)(=O)NC(=O)Nc3c4c(cc5c3CCC5)CCC4)c2C1=O | – | – | IC50 [1]: 1000 to 10000 nM
CC1(O)COc2c(S(=O)(=O)NC(=O)Nc3c4c(cc5c3CCC5)CCC4)cnn2C1 (stereo not shown) | 100 to 1000 | < 100 | –
CO[C@H]1COc2c(S(=O)(=O)NC(=O)Nc3c(C(C)C)cc(Cl)cc3C(C)C)cnn2C1 | 100 to 1000 | 100 to 1000 | –
CN[C@@H]1COc2c(S(=O)(=O)NC(=O)Nc3c4c(cc5c3CCC5)CCC4)cnn2C1 | – | – | IC50 [1]: 100 to 1000 nM
O=C(Nc1c(C2CC2)cc(Cl)cc1C1CC1)NS(=O)(=O)c1cnn2c1OCCC2 | 100 to 1000 | 100 to 1000 | –
Cc1ccc2cccnc2c1NC(=O)NS(=O)(=O)c1cnn2c1OCCC2 | – | – | PBMC IL-1β IC50 (NLRP3 inflammasome; LPS, nigericin): No Curve; CTG protective IC50 [1, 3]: No Curve
COc1ccc2cccnc2c1NC(=O)NS(=O)(=O)c1cnn2c1OCCC2 | – | – | PBMC IL-1β IC50 (NLRP3 inflammasome; LPS, nigericin): No Curve
COC1CN(C2COc3c(S(=O)(=O)NC(=O)Nc4c5c(cc6c4CCC6)CCC5)cnn3C2)C1 (stereo not shown) | – | – | IC50 [1]: < 100 nM
O=C(Nc1cc(C2CC2)cc(C2CC2)c1)NS(=O)(=O)c1cnn2c1OCCC2 | 100 to 1000 | < 100 | –
C#CCOC1COc2c(S(=O)(=O)NC(=O)Nc3c4c(cc5c3CCC5)CCC4)cnn2C1 (stereo not shown) | < 100 | < 100 | –
CC1(C)Cc2cccc(NC(=O)NS(=O)(=O)c3cnn4c3OCCC4)c2O1 | > 10000 | – | –
O=C(Nc1c2c(c(F)c3c1CCC3)CCC2)NS(=O)(=O)c1cnn2c1OCCC2 | < 100 | < 100 | –
COC1CN([C@@H]2COc3c(S(=O)(=O)NC(=O)Nc4c5c(cc6c4CCC6)CCC5)cnn3C2)C1 | – | – | IC50 [1]: < 100 nM
Cc1nn2c(c1S(=O)(=O)NC(=O)Nc1c3c(cc4c1CCC4)CCC3)OCCC2 | 100 to 1000 | < 100 | –
O=C(Nc1c(C2CC2)cc(Cl)c2c1CCC2)NS(=O)(=O)c1cnn2c1OCCC2 | 100 to 1000 | 1000 to 10000 | –
CC(=O)NCC1COc2c(S(=O)(=O)NC(=O)Nc3c4c(cc5c3CCC5)CCC4)cnn2C1 (stereo not shown) | < 100 | < 100 | –

Structure (SMILES) | IC50 (NLRP3 inflammasome; [2]) [nM] | IC50 [1, 3] [nM] | further results
CO[C@H]1COc2c(S(=O)(=O)NC(=O)Nc3c4c(c(F)c5c3CCC5)CCC4)cnn2C1 | < 100 | – | –
CO[C@H]1COc2c(S(=O)(=O)NC(=O)Nc3c(C(C)C)cc(F)cc3C(C)C)cnn2C1 | < 100 | < 100 | –
CN[C@H]1COc2c(S(=O)(=O)NC(=O)Nc3c(C(C)C)cc(F)cc3C(C)C)cnn2C1 | < 100 | – | –
O=C(Nc1c2c(cc3c1CCC3)CCC2)NS(=O)(=O)c1cnn2c1OCC(CNC(=O)C(F)(F)F)C2 (stereo not shown) | < 100 | – | –
NCC1COc2c(S(=O)(=O)NC(=O)Nc3c4c(cc5c3CCC5)CCC4)cnn2C1 (stereo not shown) | 100 to 1000 | – | –
CC(C)c1cc(F)cc(C(C)C)c1NC(=O)NS(=O)(=O)c1cnn2c1OCCC2 | 100 to 1000 | 100 to 1000 | –
O=S(=O)(NC(=S)Nc1c2c(cc3c1CCC3)CCC2)c1cnn2c1OCCC2 [drawing 494] | – | – | IC50 (NLRP3 inflammasome; [4]): 1000 to 10000 nM
O=C(Nc1c2c(cc3c1CCC3)CCC2)NS(=O)(=O)c1cnn2c1OCC1(COC1)C2 [drawing 496] | – | – | IC50 (NLRP3 inflammasome; [4]): 100 to 1000 nM
CC(C)c1cccc(C(C)C)c1NC(=O)NS(=O)(=O)c1cnn2c1OCCC2 [drawing 497] | – | – | IC50 (NLRP3 inflammasome; [4]): 1000 to 10000 nM
CC(C)c1cc(Cl)cc(C(C)C)c1NC(=O)NS(=O)(=O)c1cnn2c1OCCC2 [drawing 498] | – | – | IC50 (NLRP3 inflammasome; [4]): 100 to 1000 nM
CC1(C)COc2c(S(=O)(=O)NC(=O)Nc3c4c(cc5c3CCC5)CCC4)cnn2C1 [drawing 499] | – | – | IC50 (NLRP3 inflammasome; [4]): < 100 nM
O=C(Nc1c2c(cc3c1CCC3)CCC2)NS(=O)(=O)c1cnn2c1OCC(O)C2 (stereo not shown) [drawing 500] | – | – | IC50 (NLRP3 inflammasome; [4]): < 100 nM
O=C(Nc1c2c(cc3c1CCC3)CCC2)NS(=O)(=O)c1cnn2c1OCCCC2 [drawing 501] | – | – | IC50 (NLRP3 inflammasome; [4]): 100 to 1000 nM
CC1CCOc2c(S(=O)(=O)NC(=O)Nc3c4c(cc5c3CCC5)CCC4)cnn21 (stereo not shown) [drawing 502] | – | – | IC50 (NLRP3 inflammasome; [4]): 100 to 1000 nM
O=C(Nc1c2c(cc3c1CCC3)CCC2)NS(=O)(=O)c1cnn2c1OCC(F)C2 (stereo not shown) [drawing 503] | – | – | IC50 (NLRP3 inflammasome; [4]): 100 to 1000 nM
COC1COc2c(S(=O)(=O)NC(=O)Nc3c4c(cc5c3CCC5)CCC4)cnn2C1 (stereo not shown) [drawing 504] | – | – | IC50 (NLRP3 inflammasome; [4]): < 100 nM
CC1CCn2ncc(S(=O)(=O)NC(=O)Nc3c4c(cc5c3CCC5)CCC4)c2O1 (stereo not shown) [drawing 505] | – | – | IC50 (NLRP3 inflammasome; [4]): < 100 nM
O=C(Nc1c2c(c(Cl)c3c1CCC3)CCC2)NS(=O)(=O)c1cnn2c1OCCC2 [drawing 506] | – | – | IC50 (NLRP3 inflammasome; [4]): < 100 nM
O=C(Nc1c2c(cc3c1CCC3)CCC2)NS(=O)(=O)c1cnn2c1OCC1(COC1)C2 [drawing 510] | 100 to 1000 | – | –
CC(C)c1cccc(C(C)C)c1NC(=O)NS(=O)(=O)c1cnn2c1OCCC2 [drawing 511] | 1000 to 10000 | – | –
CC(C)c1cc(Cl)cc(C(C)C)c1NC(=O)NS(=O)(=O)c1cnn2c1OCCC2 [drawing 512] | 100 to 1000 | – | –
O=C(Nc1c2c(c(Cl)c3c1CCC3)CCC2)NS(=O)(=O)c1cnn2c1OCCC2 [drawing 520] | < 100 | – | –
COC1CN([C@H]2COc3c(S(=O)(=O)NC(=O)Nc4c5c(cc6c4CCC6)CCC5)cnn3C2)C1 [drawing 580] | – | – | IC50 [1]: < 100 nM
